From article PMC7414322 (Bioorganic & Medicinal Chemistry Letters, 2020)
Like-named read-outs stand apart in the source and are kept apart here.

Legend:
hERG = hERG (Homo sapiens, UniProt Q12809)
[1] = mouse, microsomes
[2] = human, microsomes
in vivo = conditions: rat, po, 5 mg/kg

Chain of hERG (Q12809 whole entry): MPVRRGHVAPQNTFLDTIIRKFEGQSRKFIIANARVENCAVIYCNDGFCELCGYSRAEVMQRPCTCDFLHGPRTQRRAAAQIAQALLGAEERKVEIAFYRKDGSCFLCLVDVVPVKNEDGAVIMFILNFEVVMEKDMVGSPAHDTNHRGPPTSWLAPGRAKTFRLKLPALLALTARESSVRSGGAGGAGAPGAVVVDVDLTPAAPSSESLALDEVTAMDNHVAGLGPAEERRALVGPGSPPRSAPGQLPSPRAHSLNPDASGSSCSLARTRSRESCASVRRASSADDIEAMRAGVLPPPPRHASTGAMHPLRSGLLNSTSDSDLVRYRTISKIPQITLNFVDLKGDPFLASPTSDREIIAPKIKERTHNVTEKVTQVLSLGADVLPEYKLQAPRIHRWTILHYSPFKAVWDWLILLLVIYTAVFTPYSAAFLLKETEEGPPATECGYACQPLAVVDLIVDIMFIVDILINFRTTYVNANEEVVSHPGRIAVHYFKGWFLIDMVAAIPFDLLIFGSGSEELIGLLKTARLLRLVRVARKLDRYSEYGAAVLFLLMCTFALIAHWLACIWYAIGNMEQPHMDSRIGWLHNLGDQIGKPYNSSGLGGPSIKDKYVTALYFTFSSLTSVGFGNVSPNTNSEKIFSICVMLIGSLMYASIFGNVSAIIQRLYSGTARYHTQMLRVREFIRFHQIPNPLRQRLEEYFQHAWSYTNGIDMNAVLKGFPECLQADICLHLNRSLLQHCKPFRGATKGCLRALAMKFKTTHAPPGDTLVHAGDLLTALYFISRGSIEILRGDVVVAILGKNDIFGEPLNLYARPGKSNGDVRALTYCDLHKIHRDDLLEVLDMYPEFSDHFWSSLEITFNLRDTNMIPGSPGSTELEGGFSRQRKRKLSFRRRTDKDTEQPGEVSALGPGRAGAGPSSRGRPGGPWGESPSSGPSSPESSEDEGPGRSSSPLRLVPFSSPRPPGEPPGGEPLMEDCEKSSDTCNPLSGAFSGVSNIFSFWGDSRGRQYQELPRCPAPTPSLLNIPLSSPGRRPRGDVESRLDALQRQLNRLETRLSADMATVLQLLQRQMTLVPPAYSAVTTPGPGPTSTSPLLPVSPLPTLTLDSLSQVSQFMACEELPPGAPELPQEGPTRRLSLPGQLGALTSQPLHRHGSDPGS

With `COc1cccc(CNc2ccc3ncnc(Nc4ccc(F)cc4)c3c2)c1` [Compound 7] as the compound, how does the “Inhibitory effect on MERS-CoV infection, in words” value (from here on “Inhibitory effect”) (MERS-CoV) read?
The value was “reduced potency compared to 1”.

Which “Inhibitory effect” value (MERS-CoV) does the source give for `N#Cc1ccccc1CNc1ccc2ncnc(Nc3ccc(F)c(Cl)c3)c2c1` [Compound 19] here?
Its value is “no inhibitory effect”.

For `N#Cc1cccc(CNc2cc3c(Nc4ccc(F)c(Cl)c4)ncnc3cc2O)c1` [Compound 30], which “Inhibitory effect” value (MERS-CoV) is on record?
The value was “no inhibitory effects”.

For `COc1cccc(CNc2ccc3ncnc(Nc4cccc(Cl)c4)c3c2)c1` [Compound 8], which “Inhibitory effect” value (MERS-CoV) is on record?
The value was “reduced potency compared to 1”.

For `N#Cc1cccc(CNc2ccc3ncnc(Nc4ccc(F)c(Cl)c4)c3c2)c1` [Compound 20], which “hERG binding, in words” value (hERG) is on record?
Its value is “no hERG binding”.

What about the “Microsomal stability, in words” value [1] of the same compound?
Its value is “good microsomal stability”.

What about the “Microsomal stability, in words” value [2] of the same compound?
The value was “good microsomal stability”.

And the “Cytotoxicity, in words” value (Vero)?
The value was “no cytotoxicity”.

What about the “Cytotoxicity Vero” value (Vero; African green monkey) of the same compound?
The value was greater than 100 µM.

And the “Cytotoxicity, in words” value (HFL-1)?
The value was “no cytotoxicity”.

What about the “Cytotoxicity HFL-1” value (HFL-1; human) of the same compound?
The value was greater than 100 µM.

What about the “Cytotoxicity, in words” value (L929) of the same compound?
The value was “no cytotoxicity”.

And the “Cytotoxicity L929” value (L929; mouse)?
Its value is greater than 100 µM.

What about the “Cytotoxicity, in words” value (NIH 3T3) of the same compound?
Its value is “no cytotoxicity”.

What about the “Cytotoxicity NIH 3T3” value (NIH 3T3; mouse) of the same compound?
The value was greater than 100 µM.

What about the “Cytotoxicity, in words” value (CHO-K1) of the same compound?
The value was “no cytotoxicity”.

What about the “Cytotoxicity CHO-K1” value (CHO-K1; Chinese hamster) of the same compound?
The value was greater than 100 µM.

And the Cmax (in vivo)?
Its Cmax is 200 ng/mL.

Which “Inhibitory effect” value (MERS-CoV) does the source give for `COc1cccc(CNc2ccc3ncnc(Nc4ccc(Br)cc4)c3c2)c1` [Compound 6] here?
The value was “maintained the potency”.

For `Fc1ccc(Nc2ncnc3ccc(NC4CCCCC4)cc23)cc1Cl` [Compound 25], which “Inhibitory effect” value (MERS-CoV) is on record?
The value was “little inhibitory effects”.

With `COc1cccc(CNc2ccc3ncnc(Nc4ccc(C(F)(F)F)cc4)c3c2)c1` [Compound 11] as the compound, how does the “Inhibitory effect” value (MERS-CoV) read?
The value was “slightly improve the potency”.

Which “Inhibitory effect” value (MERS-CoV) does the source give for `N#Cc1ccccc1CNc1ccc2ncnc(Nc3ccc(C(F)(F)F)cc3)c2c1` [Compound 31] here?
The value was “decreased potency”.

Which “Inhibitory effect” value (MERS-CoV) does the source give for `COc1cccc(CNc2ccc3ncnc(Nc4ccc(C#N)cc4)c3c2)c1` [Compound 9] here?
Its value is “reduced potency compared to 1”.
